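Protocol summary: plate cells (96-well), add compound at 5 concentrations, incubate 48 h, interpolate endpoints linearly. Here, GI50 denotes the concentration required for 50% inhibition of growth.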 Calls of active or inactive are those of the source. Rule as the data show it: active = GI50 up to about 1.1 µM and inactive = higher.
Key:
Test in all cases: growth of human tumour cells (NCI), 48 h
786-0 = test system: 786-0
A498 = test system: A498
A549 = test system: A549
CCRF-CEM = test system: CCRF-CEM
HL-60 = test system: HL-60
HOP-92 = test system: HOP-92
IGROV-1 = test system: IGROV-1
MCF7 = test system: MCF7
MDA-MB-231 = test system: MDA-MB-231
MDA-MB-435 = test system: MDA-MB-435
NCI-H23 = test system: NCI-H23
NCI-H460 = test system: NCI-H460
NCI-H522 = test system: NCI-H522
NCI/ADR-RES = test system: NCI/ADR-RES
PC-3 = test system: PC-3
RPMI-8226 = test system: RPMI-8226
SK-MEL-2 = test system: SK-MEL-2
SNB-19 = test system: SNB-19
U-251 = test system: U-251
UO-31 = test system: UO-31

Measured: GI50

CCCCN(Cc1ccccc1)/C(=N/C#N)N(Cc1ccccc1)Cc1ccccc1
inactive: 786-0 17.1 µM | A498 36.6 µM | A549 13.4 µM | CCRF-CEM 26.7 µM | HL-60 36.6 µM | HOP-92 11.4 µM | IGROV-1 17.6 µM | MCF7 16.1 µM | MDA-MB-231 18.7 µM | MDA-MB-435 15.7 µM | NCI-H23 11.3 µM | NCI-H460 9.84 µM | NCI-H522 7.26 µM | NCI/ADR-RES 18.7 µM | PC-3 6.71 µM | RPMI-8226 12.6 µM | SK-MEL-2 13.1 µM | SNB-19 20.7 µM | U-251 17.1 µM | UO-31 14.6 µM

Source: ChEMBL document CHEMBL1201862, “PubChem BioAssay data set” (2004)
